Assays:
[1] = circulating in blood, metabolized by the liver; cited from earlier work
alpha-1 = assay: potency of alpha-1-agonist relative to noradrenaline
Text: For example, phenylephrine is an alpha-1-agonist and may replace noradrenaline.

Compound | half-life [1] | times less potent than noradrenaline (alpha-1)
CNCC(O)c1ccc(O)c(O)c1 (stereo not drawn) [adrenaline] | approximately a few minutes | 
NC[C@H](O)c1ccc(O)c(O)c1 [noradrenaline] | approximately a few minutes | 
CNC[C@H](O)c1cccc(O)c1 [phenylephrine] |  | about 5 times

From patent US10271540B2, “Medical fluid, a method of treatment and use of the fluid” (XVIVO PERFUSION AB, priority 2010, dated 2019)
